Square brackets hold non-standard residues; d marks the D form. Peptide text beside a SMILES is read from it. * marks the point of attachment. Cbz = O=C(OCc1ccccc1)*; Thz = O=C(O)[CH]1CSCN1
Legend:
[1] = test system: LAV-1 infected CEM cells (CEM/LAV-1) and MOLT4 Clone 8; test: Inhibition of syncytia formation in mixed culture of HIV-infected and non-infected T cells; assay type: cell-based; set-up: key: -: Absolutely no inhibition of syncytium formation.; ±: Slight inhibition of syncytium formation.; +: Partial inhibition of syncytium formation.; ++: Substantial inhibition of syncytium formation.; +++: Complete inhibition of syncytium formation; details: 1 mM; CEM/LAV-1 + MOLT4 Clone 8, 37°C, 18 hours
From the text: When HIV-infected T cells and non-infected T cells are mixed in a test tube, the infected T cells and non-infected T cells undergo fusion and form giant cells. This "syncytium forming phenomenon" has already been known to be observed upon their mixing. This phenomenon is characteristic to intercellular infection from HIV and is regarded as an evidence for HIV infection of T cells.
(§1) LAV-1 infected CEM cells (CEM/LAV-1, 2 x 10⁴) and MOLT4 Clone 8 (1 x 10⁵) were used as HIV-infected cells and non-infected cells, respectively. Those two types of cells were cultured in 200 µl/well of RPMI1640 medium added with 10% FCS in a 96-well microplate. The PEP inhibitors of this invention and comparative product, which are shown in Table 1, were separately added. The cells were cultured at 37°C for 18 hours in a capneic incubator. Formation of syncytia was observed. The PEP inhibitory action was measured according to the following method.

[2] = target: T1, PEP derived from bovine brain (Bos taurus, UniProt Q9XTA2); test: Measurement of PEP inhibitory action (substrate Z-Gly-Pro-β-naphtyl amide); assay type: biochemical; details: pH 7.0, 37°C, read-out: PEP Inhibition IC50
T1 construct: PEP derived from bovine brain; from tissue; host or cells: bovine brain
T1 sequence (Q9XTA2 1-710): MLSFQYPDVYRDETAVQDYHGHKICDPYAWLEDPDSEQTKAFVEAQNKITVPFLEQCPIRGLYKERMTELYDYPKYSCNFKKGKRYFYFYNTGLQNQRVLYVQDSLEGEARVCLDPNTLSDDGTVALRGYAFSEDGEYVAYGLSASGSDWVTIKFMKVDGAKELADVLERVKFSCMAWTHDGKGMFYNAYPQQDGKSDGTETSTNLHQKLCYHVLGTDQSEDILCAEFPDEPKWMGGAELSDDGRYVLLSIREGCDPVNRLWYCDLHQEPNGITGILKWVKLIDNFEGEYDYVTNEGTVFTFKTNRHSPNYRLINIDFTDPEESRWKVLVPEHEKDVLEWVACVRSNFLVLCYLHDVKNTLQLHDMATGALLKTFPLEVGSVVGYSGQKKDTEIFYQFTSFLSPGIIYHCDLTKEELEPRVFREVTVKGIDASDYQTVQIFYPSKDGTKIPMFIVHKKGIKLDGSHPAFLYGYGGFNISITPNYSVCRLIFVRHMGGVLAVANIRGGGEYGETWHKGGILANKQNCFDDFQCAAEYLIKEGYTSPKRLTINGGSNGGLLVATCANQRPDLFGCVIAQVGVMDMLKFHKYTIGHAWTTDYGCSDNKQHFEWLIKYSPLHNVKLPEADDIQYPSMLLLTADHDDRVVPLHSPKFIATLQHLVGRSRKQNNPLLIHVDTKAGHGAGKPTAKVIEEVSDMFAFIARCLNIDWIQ
Experimental: as §1, with “Those” for “LAV-1 infected CEM cells (CEM/LAV-1, 2 x 10⁴) and MOLT4 Clone 8 (1 x 10⁵) were used as HIV-infected cells and non-infected cells, respectively. Those”
Z-Gly-Pro-β-naphtyl amide was used as a substrate and the inhibitory action against PEP derived from bovine brain was measured.
0.7 ml of 20 mM-tris HCl buffer (pH 7.0) containing 10 mM of EDTA and 10 mM of 2-mercaptoethanol was added with 100 µl of PEP (about 0.14 u/ml) and 100 µl of a test solution which had been prepared to have a predetermined concentration (0, 10⁻⁹ - 10⁻⁴M), and subjected to preincubation at 37°C for 5 minutes. To this was added various concentrations of a substrate which had been dissolved in 100 µl of 40% dioxane followed by incubation at 37°C for 15 minutes to proceed an exzymatic reaction. The reaction was terminated by the use of 25% trichloroacetic acid. The solution was centrifugally separated at 3,000 rpm for 10 minutes to obtain 0.5 ml of a supernatent, to which was added 0.5 ml of 0.1% nitrous acid, and 3 minutes after, 0.05% N-(1-naphtyl)ethylendediaminedihydrochloride ethanol solution. After allowing the mixture to stand at 37°C for 25 minutes, the absorbance at 570 nm was measured. […] Enzyme activity unit (µmol/min/ml) = ΔOD x 0.42 x dilution ratio

SMILES	Inhibition of Syncytia Formation [1]	IC50 [2] [µM]
O=C(C1CCCN1C(=O)OCc1ccccc1)N1CCCCC1 (stereo not drawn)	±	> 1000
O=C(C1CSCN1C(=O)OCc1ccccc1)N1CCOCC1 (stereo not drawn)		0.54
O=C(C1CSCN1C(=O)OCc1ccccc1)N1CCCC1 (stereo not drawn)		0.16
O=C(C1CCCN1C(=O)OCc1ccccc1)N1CCSC1 (stereo not drawn)	++	0.0046
O=C(C1CSCN1C(=O)OCc1ccccc1)N1CCSC1 (stereo not drawn)	+++	0.00014
O=CC1CSCN1C(=O)C1CCCN1C(=O)OCc1ccccc1 (stereo not drawn) (Cbz-Pro-[Thz]-aldehyde; configuration not given here)	++	0.001
O=CC1CSCN1C(=O)C1CSCN1C(=O)OCc1ccccc1 (stereo not drawn) (Cbz-[Thz]-[Thz]-aldehyde; configuration not given here)	+++	
O=C(C1CSCN1)N1CCSC1 (stereo not drawn) [comparative product, reference compound]		> 1000
